# System: 766 cancer cell lines
# Assay: Large-scale cell-line viability measurements (766 cancer cell lines, 72 h, AUC)
# Assay type: cell-based, human
# Description: Cell lines were treated for 72 hours with concentrations ranging from 66.4 μM-2 nM in 2-fold step dilutions.
# To characterize cellular sensitivity to DNMDP further, 766 genomically characterized cancer cell lines were screened for DMNDP sensitivity at concentrations ranging from 66.4 μM to 2 nM in 2-fold dilution steps for 72 hours. From these cell lines, 22 cell lines were categorized as sensitive with a robust Z-score lower than −4, which represented multiple lineages including multiple melanoma cell lines, amongst others (Table 1).
# The sensitivity of […] cancer cell lines (CCLs) was measured drawn from 23 different lineages to DNMDP. Each cell line was plated in its preferred media in white opaque 1536-plates at a density of 500 cells/well. After incubating overnight, DNMDP was added by acoustic transfer at 16 concentrations ranging from 66.4 μM-2 nM in 2-fold steps in duplicate (Labcyte Echo 555, Labcyte Inc., Sunnyvale, Calif.). After 72 hours treatment, cellular ATP levels were measured as a surrogate for viability (CELLTITERGLO®, Promega Corporation, Madison, Wis.) according to manufacturer's protocols using a ViewLux Microplate Imager (PerkinElmer, Waltham, Mass.) and normalized to background (media-only) and vehicle (DMSO)-treated control wells.
# Concentration response curves were fit using nonlinear fits to 2- or 3-parameter sigmoid functions through all 16 concentrations with the low-concentration asymptote set to the DMSO-normalized value, and an optimal 8-point dose curve spanning the range of compound-sensitivity was identified. The area under the 8-point dose curve (AUC) was computed by numeric integration as a metric for sensitivity for further analysis. Similar sensitivity measurements have been obtained for a collection of 480 other compounds, enabling analyses that identify cell lines responding uniquely to DNMDP (see Broad Institute Cancer Therapeutics Response Portal, a dataset to identify comprehensively relationships between genetic and lineage features of human cancer cell lines and small-molecule sensitivities for complete list of compounds).
# [1] = ALLSIL (HAEMATOPOIETIC AND LYMPHOID TISSUE), 72 hours
# [2] = BICR6 (UPPER AERODIGESTIVE TRACT), 72 hours
# [3] = DKMG (CENTRAL NERVOUS SYSTEM), 72 hours
# [4] = DND41 (HAEMATOPOIETIC AND LYMPHOID TISSUE), 72 hours
# [5] = EJM (HAEMATOPOIETIC AND LYMPHOID TISSUE), 72 hours
# [6] = GB1 (CENTRAL NERVOUS SYSTEM), 72 hours
# [7] = GOS3 (CENTRAL NERVOUS SYSTEM), 72 hours
# [8] = GRANTA519 (HAEMATOPOIETIC AND LYMPHOID TISSUE), 72 hours
# [9] = HEL9217 (HAEMATOPOIETIC AND LYMPHOID TISSUE), 72 hours
# [10] = HUT78 (HAEMATOPOIETIC AND LYMPHOID TISSUE), 72 hours
# [11] = KCL22 (HAEMATOPOIETIC AND LYMPHOID TISSUE), 72 hours
# [12] = KMM1 (HAEMATOPOIETIC AND LYMPHOID TISSUE), 72 hours
# [13] = KMS11 (HAEMATOPOIETIC AND LYMPHOID TISSUE), 72 hours
# [14] = KMS12BM (HAEMATOPOIETIC AND LYMPHOID TISSUE), 72 hours
# [15] = KMS20 (HAEMATOPOIETIC AND LYMPHOID TISSUE), 72 hours
# [16] = KMS28BM (HAEMATOPOIETIC AND LYMPHOID TISSUE), 72 hours
# [17] = KMS34 (HAEMATOPOIETIC AND LYMPHOID TISSUE), 72 hours
# [18] = KO52 (HAEMATOPOIETIC AND LYMPHOID TISSUE), 72 hours
# [19] = L540 (HAEMATOPOIETIC AND LYMPHOID TISSUE), 72 hours
# [20] = L1236 (HAEMATOPOIETIC AND LYMPHOID TISSUE), 72 hours
# [21] = LAMA84 (HAEMATOPOIETIC AND LYMPHOID TISSUE), 72 hours
# [22] = LNCAPCLONEFGC (PROSTATE), 72 hours
# [23] = LP1 (HAEMATOPOIETIC AND LYMPHOID TISSUE), 72 hours
smiles,measurement,setting,value
"CCN(CC)c1ccc(C2=NNC(=O)CC2C)cc1[N+](=O)[O-] (centres unmarked) [DNMDP, 6-(4-(diethylamino)-3-nitrophenyl)-5-methyl-4,5-dihydropyridazin-3(2H)-one]",number of cell lines categorized as sensitive (robust Z-score lower than −4),"766 cell lines, 66.4 μM to 2 nM, 72 hours",22 cell lines
same,share of cell lines with nanomolar efficacy,766 genomically-characterized cancer cell lines,about 3%
same,DNMDP AUC,"A549 (LUNG), 72 hours",5.9509
same,Robust Z-score,"A549 (LUNG), 72 hours",−0.7177
same,DNMDP AUC,[1],5.8724
same,Robust Z-score,[1],−0.8001
same,DNMDP AUC,[2],5.8837
same,Robust Z-score,[2],−0.7882
same,DNMDP AUC,"BT549 (BREAST), 72 hours",5.9226
same,Robust Z-score,"BT549 (BREAST), 72 hours",−0.7474
same,DNMDP AUC,"C32 (SKIN), 72 hours",6.1786
same,Robust Z-score,"C32 (SKIN), 72 hours",−0.4787
same,DNMDP AUC,"CAL54 (KIDNEY), 72 hours",6.1949
same,Robust Z-score,"CAL54 (KIDNEY), 72 hours",−0.4616
same,DNMDP AUC,"COLO668 (LUNG), 72 hours",5.9969
same,Robust Z-score,"COLO668 (LUNG), 72 hours",−0.6694
same,DNMDP AUC,"COLO679 (SKIN), 72 hours",5.9634
same,Robust Z-score,"COLO679 (SKIN), 72 hours",−0.7046
same,DNMDP AUC,"COLO800 (SKIN), 72 hours",6.1272
same,Robust Z-score,"COLO800 (SKIN), 72 hours",−0.5326
same,DNMDP AUC,"CORL51 (LUNG), 72 hours",0.5944
same,Robust Z-score,"CORL51 (LUNG), 72 hours",−6.34
same,DNMDP AUC,"COV362 (OVARY), 72 hours",5.6913
same,Robust Z-score,"COV362 (OVARY), 72 hours",−0.9902
same,DNMDP AUC,[3],1.7217
same,Robust Z-score,[3],−5.157
same,DNMDP AUC,"DMS53 (LUNG), 72 hours",6.2061
same,Robust Z-score,"DMS53 (LUNG), 72 hours",−0.4498
same,DNMDP AUC,[4],6.1979
same,Robust Z-score,[4],−0.4584
same,DNMDP AUC,"DU145 (PROSTATE), 72 hours",5.7825
same,Robust Z-score,"DU145 (PROSTATE), 72 hours",−0.8945
same,DNMDP AUC,"DV90 (LUNG), 72 hours",6.1676
same,Robust Z-score,"DV90 (LUNG), 72 hours",−0.4902
same,DNMDP AUC,"ECGI10 (OESOPHAGUS), 72 hours",6.2151
same,Robust Z-score,"ECGI10 (OESOPHAGUS), 72 hours",−0.4404
same,DNMDP AUC,[5],6.1782
same,Robust Z-score,[5],−0.4791
same,DNMDP AUC,"EPLC272H (LUNG), 72 hours",6.0469
same,Robust Z-score,"EPLC272H (LUNG), 72 hours",−0.6169
same,DNMDP AUC,"G402 (SOFT TISSUE), 72 hours",6.0606
same,Robust Z-score,"G402 (SOFT TISSUE), 72 hours",−0.6026
same,DNMDP AUC,[6],1.8269
same,Robust Z-score,[6],−5.046
same,DNMDP AUC,[7],6.2076
same,Robust Z-score,[7],−0.4483
same,DNMDP AUC,[8],5.8937
same,Robust Z-score,[8],−0.7777
same,DNMDP AUC,"GSU (STOMACH), 72 hours",6.1172
same,Robust Z-score,"GSU (STOMACH), 72 hours",−0.5431
same,DNMDP AUC,"HCC1395 (BREAST), 72 hours",5.9716
same,Robust Z-score,"HCC1395 (BREAST), 72 hours",−0.696
same,DNMDP AUC,"HCC1419 (BREAST), 72 hours",5.7835
same,Robust Z-score,"HCC1419 (BREAST), 72 hours",−0.8934
same,DNMDP AUC,"HCC1428 (BREAST), 72 hours",5.9402
same,Robust Z-score,"HCC1428 (BREAST), 72 hours",−0.7289
same,DNMDP AUC,"HCC1500 (BREAST), 72 hours",5.9451
same,Robust Z-score,"HCC1500 (BREAST), 72 hours",−0.7238
same,DNMDP AUC,[9],0.75
same,Robust Z-score,[9],−6.177
same,DNMDP AUC,"HS888T (BONE), 72 hours",5.8353
same,Robust Z-score,"HS888T (BONE), 72 hours",−0.839
same,DNMDP AUC,[10],1.5307
same,Robust Z-score,[10],−5.357
same,DNMDP AUC,"IALM (LUNG), 72 hours",5.775
same,Robust Z-score,"IALM (LUNG), 72 hours",−0.9023
same,DNMDP AUC,"JHH4 (LIVER), 72 hours",5.71
same,Robust Z-score,"JHH4 (LIVER), 72 hours",−0.9706
same,DNMDP AUC,[11],5.9598
same,Robust Z-score,[11],−0.7084
same,DNMDP AUC,[12],6.1723
same,Robust Z-score,[12],−0.4853
same,DNMDP AUC,[13],6.2008
same,Robust Z-score,[13],−0.4554
same,DNMDP AUC,[14],6.0135
same,Robust Z-score,[14],−0.652
same,DNMDP AUC,[15],6.0542
same,Robust Z-score,[15],−0.6093
same,DNMDP AUC,[16],5.9369
same,Robust Z-score,[16],−0.7324
same,DNMDP AUC,[17],5.8799
same,Robust Z-score,[17],−0.7922
same,DNMDP AUC,[18],6.2174
same,Robust Z-score,[18],−0.438
same,DNMDP AUC,"KYSE410 (OESOPHAGUS), 72 hours",6.0741
same,Robust Z-score,"KYSE410 (OESOPHAGUS), 72 hours",−0.5884
same,DNMDP AUC,[19],6.0807
same,Robust Z-score,[19],−0.5815
same,DNMDP AUC,[20],6.0853
same,Robust Z-score,[20],−0.5766
same,DNMDP AUC,[21],5.8201
same,Robust Z-score,[21],−0.855
same,DNMDP AUC,"LMSU (STOMACH), 72 hours",6.0528
same,Robust Z-score,"LMSU (STOMACH), 72 hours",−0.6107
same,DNMDP AUC,[22],5.7557
same,Robust Z-score,[22],−0.9226
same,DNMDP AUC,"LOUNH91 (LUNG), 72 hours",5.9793
same,Robust Z-score,"LOUNH91 (LUNG), 72 hours",−0.6879
same,DNMDP AUC,[23],6.1029
same,Robust Z-score,[23],−0.5582
same,DNMDP AUC,"LU99 (LUNG), 72 hours",5.8016

# From patent publication US11207320B2, “Compositions and methods for cancer expressing PDE3A or SLFN12” (The Broad Institute, Inc., priority 2015, dated 2021)
